Source: publication PMC6934184, “Selective DNA-PKcs inhibition extends the therapeutic index of localized radiotherapy and chemotherapy” (The Journal of Clinical Investigation, 2019)

Molecular target: T1, RIPK2 (Homo sapiens, UniProt O43353)
T1 construct: purchased Thermo Fisher Scientific (Life Technologies) SelectScreen
Assay: SelectScreen LanthaScreen
Assay type: binding
Conditions: read-out: % displacement
Method: The in vitro kinase selectivity of NU5455 was determined using the SelectScreen Broad Assay Panel (Thermo Fisher Scientific) involving activity and binding assays (Supplemental Table 1). […] Class IA PI3Ks were measured using the p85α subunit.
Kinase [ATP] % Assay Kinase [ATP] % Assay Kinase [ATP] % Assay Kinase [ATP] % Assay […]
MAPK11 (p38 beta) Km app 9.5 Z RIPK2 n/a 3.1 L AKT2 (PKB beta) Km app 0.0 Z PRKCE (PKC epsilon) Km app -4.9 Z […]
SGK (SGK1) Km app 8.5 Z MAP4K2 (GCK) Km app 2.7 Z TLK2 n/a -0.3 L STK38 (NDR) n/a -5.9 L
MERTK (cMER) Km app 8.3 Z CDK2/cyclin A Km app 2.7 Z TGFBR1 (ALK5) n/a -0.4 L MATK (HYL) Km app -6.3 Z
FYN Km app 8.3 Z EPHA1 Km app 2.7 Z CLK3 Km app -0.5 Z ABL1 E255K Km app -6.6 Z
TEC n/a 8.1 L CDK2/cyclin E1 n/a 2.7 L MAP3K14 (NIK) n/a -0.5 L STK17A (DRAK1) n/a -6.6 L
KIT V654A n/a 8.1 L TESK2 n/a 2.7 L AKT3 (PKB gamma) Km app -0.5 Z JAK2 JH1 JH2 Km app -6.7 Z
ROS1 Km app 8.0 Z SPHK1 Km app 2.7 A MAP3K9 (MLK1) Km app -0.5 Z PRKACB (PRKAC beta) n/a -6.8 L
FGFR3 K650E Km app 7.9 Z AMPK A2/B1/G1 Km app 2.6 Z IKBKB (IKK beta) Km app -0.6 Z PDGFRA (PDGFR alpha) Km app -6.8 Z
RAF1 (cRAF) Y340D Y341D 100 7.9 Z DYRK3 Km app 2.6 Z CAMK2A (CaMKII alpha) Km app -0.6 Z NEK9 Km app -7.2 Z
PI4KA (PI4K alpha) 10 7.8 A CSNK1D (CK1 delta) Km app 2.6 Z PRKCB1 (PKC beta I) Km app -0.7 Z PDK1 Km app -7.3 Z […]

T1 sequence (O43353 whole entry): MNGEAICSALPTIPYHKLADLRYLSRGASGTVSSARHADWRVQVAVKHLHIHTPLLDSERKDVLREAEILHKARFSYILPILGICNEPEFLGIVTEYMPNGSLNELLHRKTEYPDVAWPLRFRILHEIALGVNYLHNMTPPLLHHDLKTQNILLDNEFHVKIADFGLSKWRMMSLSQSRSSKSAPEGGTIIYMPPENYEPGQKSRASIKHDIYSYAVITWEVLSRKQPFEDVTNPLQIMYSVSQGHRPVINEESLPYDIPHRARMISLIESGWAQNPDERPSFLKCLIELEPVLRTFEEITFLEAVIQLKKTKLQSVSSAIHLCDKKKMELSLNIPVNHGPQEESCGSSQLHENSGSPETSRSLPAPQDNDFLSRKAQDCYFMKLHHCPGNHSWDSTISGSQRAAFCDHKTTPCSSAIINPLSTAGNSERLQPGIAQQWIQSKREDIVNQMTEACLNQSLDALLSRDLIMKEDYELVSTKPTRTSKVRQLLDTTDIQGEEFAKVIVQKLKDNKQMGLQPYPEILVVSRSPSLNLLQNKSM

With `CN(C(=O)CN1CCOCC1)c1ccc2sc3c(-c4cccc5c(=O)cc(N6CC7CCC(C6)O7)oc45)cccc3c2c1` [NU5455] as the molecule, how does the inhibition at 1 µM read?
The inhibition at 1 µM was 3.1%.
